The values that follow are results of earlier work, collected in patent US20070287755A1, “Orally administered compound for preventing neonatal hemorrhages, in a tardy form, caused by a K-vitamin dificiency” (priority 2006, published 2007).

For data set [1] the following is noted: only if a suitable amount of biliar salts is present; lymphatic ways, proximal small intestine.
The conditions of data set [2]: human person, after 72 hours.
Data set [3] deals with tardy hemorrhagic disease. The settings on record: repeated oral doses of 25 micrograms/day, breast-fed newborn babies.

As to `CC1=C(C/C=C(\C)CCC[C@H](C)CCC[C@H](C)CCCC(C)C)C(=O)c2ccccc2C1=O` [Phytonadion], in data set [1], the “absorption through the gastrointestinal tract” value is “nearly fully absorbed”.

On to K-vitamin, for which, in data set [2], the presence in blood entry is listed as “practically absent in blood”. In data set [3], the “prophylaxis of tardy hemorrhagic disease” value is “efficient for a full prophylaxis”.
